# Data as given in US20020111274A1, “1-alkyl-3-[1-(substituted phenyl) benzotriazol-6-yl] uracils” (BASF Aktiengesellschaft, priority 2000, published 2002).
# How the values were obtained:
# Set-up in all cases: scale not given here
# [1] = system: ABUTH Velvetleaf; assay: Postemergence herbicidal evaluation, ABUTH; format: in vivo, Abutilon theophrasti, Medic.; details: postemergence spray, rated about two-three weeks after treatment
# Outline: (§1)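 For this test, compound in an 80/20 acetone/water vehicle with 1.0% seed oil was sprayed over two-week-old seedlings at about 0.006 to 0.400 kg per hectare. Injury was assessed visually two to three weeks on.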
# [2] = system: ORYSAT Rice, Tebonnet; assay: Preemergence herbicidal evaluation, ORYSAT; format: in vivo, Oryza sativa, (L.); details: preemergence
# Outline: (§2)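 First, seed is blended with potting soil and sown over roughly an inch of soil per cup. Next, the surface is sprayed with an aqueous acetone solution delivering about 0.013–0.800 kg/ha. Finally, cups are grown in the greenhouse and rated after 4–5 weeks.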
# [3] = system: TRZAWR Wheat, Winter, cv Riband; assay: Postemergence herbicidal evaluation, TRZAWR; format: in vivo, Triticum aestivum; details: postemergence spray, rated about two-three weeks after treatment
# Outline: as §1
# [4] = system: ZEAMX Corn, Field; assay: Postemergence herbicidal evaluation, ZEAMX; format: in vivo, Zea mays, L. (Sammel-Bezeichnung); details: postemergence spray, rated about two-three weeks after treatment
# Outline: as §1
# [5] = system: CASOB Sicklepod; assay: Postemergence herbicidal evaluation, CASOB; format: in vivo, Cassia obtusifolia, L.; details: postemergence spray, rated about two-three weeks after treatment
# Outline: as §1
# [6] = system: GALAP Galium; assay: Preemergence herbicidal evaluation, GALAP; format: in vivo, Galium aparine; details: preemergence
# Outline: as §2
# [7] = system: SETVI Foxtail, Green; assay: Postemergence herbicidal evaluation, SETVI; format: in vivo, Setaria viridis, (L.) Beau; details: postemergence spray, rated about two-three weeks after treatment
# Outline: as §1
# [8] = system: ECHOG Barnyardgrass; assay: Postemergence herbicidal evaluation, ECHOG; format: in vivo, Echinochloa crus-galli, (L.) Beau; details: postemergence spray, rated about two-three weeks after treatment
# Outline: as §1
# [9] = system: GLXMAW Soybean, Williams; assay: Postemergence herbicidal evaluation, GLXMAW; format: in vivo, Glycine max, (L.) Merr. cv Williams; details: postemergence spray, rated about two-three weeks after treatment
# Outline: as §1
# [10] = system: ECHOG Barnyardgrass; assay: Preemergence herbicidal evaluation, ECHOG; format: in vivo, Echinochloa crus-galli, (L.) Beau; details: preemergence
# Outline: as §2
# [11] = system: CHEAL Lambsquarters, Common; assay: Preemergence herbicidal evaluation, CHEAL; format: in vivo, Chenopodium album, L.; details: preemergence
# Outline: as §2
# [12] = system: GLXMAW Soybean, Williams; assay: Preemergence herbicidal evaluation, GLXMAW; format: in vivo, Glycine max, (L.) Merr. cv Williams; details: preemergence
# Outline: as §2
# [13] = system: IPOHE Morningglory, Ivyleaf; assay: Postemergence herbicidal evaluation, IPOHE; format: in vivo, Ipomoea hederacea, (L.) Jacq.; details: postemergence spray, rated about two-three weeks after treatment
# Outline: as §1
# [14] = system: TRZAWR Wheat, Winter, cv Riband; assay: Preemergence herbicidal evaluation, TRZAWR; format: in vivo, Triticum aestivum; details: preemergence
# Outline: as §2
# [15] = system: ORYSAT Rice, Tebonnet; assay: Postemergence herbicidal evaluation, ORYSAT; format: in vivo, Oryza sativa, (L.); details: postemergence spray, rated about two-three weeks after treatment
# Outline: as §1
# [16] = system: ABUTH Velvetleaf; assay: Preemergence herbicidal evaluation, ABUTH; format: in vivo, Abutilon theophrasti, Medic.; details: preemergence
# Outline: as §2
# [17] = system: AMBEL Ragweed, Common; assay: Postemergence herbicidal evaluation, AMBEL; format: in vivo, Ambrosia artemisifolia, L.; details: postemergence spray, rated about two-three weeks after treatment
# Outline: as §1
# [18] = system: CASOB Sicklepod; assay: Preemergence herbicidal evaluation, CASOB; format: in vivo, Cassia obtusifolia, L.; details: preemergence
# Outline: as §2
# [19] = system: GALAP Galium; assay: Postemergence herbicidal evaluation, GALAP; format: in vivo, Galium aparine; details: postemergence spray, rated about two-three weeks after treatment
# Outline: as §1
# [20] = system: SETVI Foxtail, Green; assay: Preemergence herbicidal evaluation, SETVI; format: in vivo, Setaria viridis, (L.) Beau; details: preemergence
# Outline: as §2
# [21] = system: IPOHE Morningglory, Ivyleaf; assay: Preemergence herbicidal evaluation, IPOHE; format: in vivo, Ipomoea hederacea, (L.) Jacq.; details: preemergence
# Outline: as §2
# [22] = system: ZEAMX Corn, Field; assay: Preemergence herbicidal evaluation, ZEAMX; format: in vivo, Zea mays, L. (Sammel-Bezeichnung); details: preemergence
# Outline: as §2
# [23] = system: CHEAL Lambsquarters, Common; assay: Postemergence herbicidal evaluation, CHEAL; format: in vivo, Chenopodium album, L.; details: postemergence spray, rated about two-three weeks after treatment
# Outline: as §1
# [24] = system: AMBEL Ragweed, Common; assay: Preemergence herbicidal evaluation, AMBEL; format: in vivo, Ambrosia artemisifolia, L.; details: preemergence
# Outline: as §2
compound,measurement,setting,value
Cc1ccc(-n2nnc3cc(F)c(-n4c(=O)cc(C(F)(F)F)n(C)c4=O)cc32)cc1C [Example 23],Postemergence herbicidal rating ABUTH,[1]; 0.008 kg/ha,9.0
same,Postemergence herbicidal rating ABUTH,[1]; 0.016 kg/ha,9.0
same,Postemergence herbicidal rating ABUTH,[1]; 0.032 kg/ha,9.0
same,Postemergence herbicidal rating ABUTH,[1]; 0.062 kg/ha,9.0
same,ORYSAT herbicidal rating,[2]; rate 0.016 kg/ha,0.0
same,ORYSAT herbicidal rating,[2]; rate 0.032 kg/ha,0.0
same,ORYSAT herbicidal rating,[2]; rate 0.062 kg/ha,0.0
same,ORYSAT herbicidal rating,[2]; rate 0.125 kg/ha,0.0
same,Postemergence herbicidal rating TRZAWR,[3]; 0.008 kg/ha,4.0
same,Postemergence herbicidal rating TRZAWR,[3]; 0.016 kg/ha,4.5
same,Postemergence herbicidal rating TRZAWR,[3]; 0.032 kg/ha,5.5
same,Postemergence herbicidal rating TRZAWR,[3]; 0.062 kg/ha,6.5
same,Postemergence herbicidal rating ZEAMX,[4]; 0.008 kg/ha,5.5
same,Postemergence herbicidal rating ZEAMX,[4]; 0.016 kg/ha,7.0
same,Postemergence herbicidal rating ZEAMX,[4]; 0.032 kg/ha,8.0
same,Postemergence herbicidal rating ZEAMX,[4]; 0.062 kg/ha,8.5
same,Postemergence herbicidal rating CASOB,[5]; 0.008 kg/ha,0.0
same,Postemergence herbicidal rating CASOB,[5]; 0.016 kg/ha,0.0
same,Postemergence herbicidal rating CASOB,[5]; 0.032 kg/ha,0.0
same,Postemergence herbicidal rating CASOB,[5]; 0.062 kg/ha,3.0
same,GALAP herbicidal rating,[6]; rate 0.016 kg/ha,0.0
same,GALAP herbicidal rating,[6]; rate 0.032 kg/ha,0.0
same,GALAP herbicidal rating,[6]; rate 0.062 kg/ha,0.0
same,GALAP herbicidal rating,[6]; rate 0.125 kg/ha,0.0
same,Postemergence herbicidal rating SETVI,[7]; 0.008 kg/ha,7.0
same,Postemergence herbicidal rating SETVI,[7]; 0.016 kg/ha,9.0
same,Postemergence herbicidal rating SETVI,[7]; 0.032 kg/ha,9.0
same,Postemergence herbicidal rating SETVI,[7]; 0.062 kg/ha,9.0
same,Postemergence herbicidal rating ECHCG,[8]; 0.008 kg/ha,0.0
same,Postemergence herbicidal rating ECHCG,[8]; 0.016 kg/ha,0.0
same,Postemergence herbicidal rating ECHCG,[8]; 0.032 kg/ha,0.0
same,Postemergence herbicidal rating ECHCG,[8]; 0.062 kg/ha,0.0
same,Postemergence herbicidal rating GLXMAW,[9]; 0.008 kg/ha,3.5
same,Postemergence herbicidal rating GLXMAW,[9]; 0.016 kg/ha,4.5
same,Postemergence herbicidal rating GLXMAW,[9]; 0.032 kg/ha,4.5
same,Postemergence herbicidal rating GLXMAW,[9]; 0.062 kg/ha,4.5
same,ECHCG herbicidal rating,[10]; rate 0.016 kg/ha,0.0
same,ECHCG herbicidal rating,[10]; rate 0.032 kg/ha,2.0
same,ECHCG herbicidal rating,[10]; rate 0.062 kg/ha,5.0
same,ECHCG herbicidal rating,[10]; rate 0.125 kg/ha,8.0
same,CHEAL herbicidal rating,[11]; rate 0.016 kg/ha,0.0
same,CHEAL herbicidal rating,[11]; rate 0.032 kg/ha,7.0
same,CHEAL herbicidal rating,[11]; rate 0.062 kg/ha,9.0
same,CHEAL herbicidal rating,[11]; rate 0.125 kg/ha,9.0
same,GLXMAW herbicidal rating,[12]; rate 0.016 kg/ha,0.0
same,GLXMAW herbicidal rating,[12]; rate 0.032 kg/ha,0.0
same,GLXMAW herbicidal rating,[12]; rate 0.062 kg/ha,0.0
same,GLXMAW herbicidal rating,[12]; rate 0.125 kg/ha,0.0
same,Postemergence herbicidal rating IPOHE,[13]; 0.008 kg/ha,2.0
same,Postemergence herbicidal rating IPOHE,[13]; 0.016 kg/ha,9.0
same,Postemergence herbicidal rating IPOHE,[13]; 0.032 kg/ha,9.0
same,Postemergence herbicidal rating IPOHE,[13]; 0.062 kg/ha,9.0
same,TRZAWR herbicidal rating,[14]; rate 0.016 kg/ha,0.0
same,TRZAWR herbicidal rating,[14]; rate 0.032 kg/ha,0.0
same,TRZAWR herbicidal rating,[14]; rate 0.062 kg/ha,1.0
same,TRZAWR herbicidal rating,[14]; rate 0.125 kg/ha,3.0
same,Postemergence herbicidal rating ORYSAT,[15]; 0.008 kg/ha,2.5
same,Postemergence herbicidal rating ORYSAT,[15]; 0.016 kg/ha,3.0
same,Postemergence herbicidal rating ORYSAT,[15]; 0.032 kg/ha,3.5
same,Postemergence herbicidal rating ORYSAT,[15]; 0.062 kg/ha,4.0
same,ABUTH herbicidal rating,[16]; rate 0.016 kg/ha,0.0
same,ABUTH herbicidal rating,[16]; rate 0.032 kg/ha,3.0
same,ABUTH herbicidal rating,[16]; rate 0.062 kg/ha,9.0
same,ABUTH herbicidal rating,[16]; rate 0.125 kg/ha,9.0
same,Postemergence herbicidal rating AMBEL,[17]; 0.008 kg/ha,0.0
same,Postemergence herbicidal rating AMBEL,[17]; 0.016 kg/ha,0.0
same,Postemergence herbicidal rating AMBEL,[17]; 0.032 kg/ha,4.0
same,Postemergence herbicidal rating AMBEL,[17]; 0.062 kg/ha,9.0
same,CASOB herbicidal rating,[18]; rate 0.016 kg/ha,0.0
same,CASOB herbicidal rating,[18]; rate 0.032 kg/ha,0.0
same,CASOB herbicidal rating,[18]; rate 0.062 kg/ha,0.0
same,CASOB herbicidal rating,[18]; rate 0.125 kg/ha,0.0
same,Postemergence herbicidal rating GALAP,[19]; 0.008 kg/ha,0.0
same,Postemergence herbicidal rating GALAP,[19]; 0.016 kg/ha,2.0
same,Postemergence herbicidal rating GALAP,[19]; 0.032 kg/ha,2.0
same,Postemergence herbicidal rating GALAP,[19]; 0.062 kg/ha,2.0
same,SETVI herbicidal rating,[20]; rate 0.016 kg/ha,3.0
same,SETVI herbicidal rating,[20]; rate 0.032 kg/ha,8.0
same,SETVI herbicidal rating,[20]; rate 0.062 kg/ha,9.0
same,SETVI herbicidal rating,[20]; rate 0.125 kg/ha,9.0
same,IPOHE herbicidal rating,[21]; rate 0.016 kg/ha,0.0
same,IPOHE herbicidal rating,[21]; rate 0.032 kg/ha,0.0
same,IPOHE herbicidal rating,[21]; rate 0.062 kg/ha,0.0
same,IPOHE herbicidal rating,[21]; rate 0.125 kg/ha,1.0
same,ZEAMX herbicidal rating,[22]; rate 0.016 kg/ha,0.0
same,ZEAMX herbicidal rating,[22]; rate 0.032 kg/ha,0.0
same,ZEAMX herbicidal rating,[22]; rate 0.062 kg/ha,0.0
same,ZEAMX herbicidal rating,[22]; rate 0.125 kg/ha,4.0
same,Postemergence herbicidal rating CHEAL,[23]; 0.008 kg/ha,3.0
same,Postemergence herbicidal rating CHEAL,[23]; 0.032 kg/ha,4.0
same,Postemergence herbicidal rating CHEAL,[23]; 0.062 kg/ha,9.0
same,AMBEL herbicidal rating,[24]; rate 0.016 kg/ha,0.0
same,AMBEL herbicidal rating,[24]; rate 0.032 kg/ha,0.0
same,AMBEL herbicidal rating,[24]; rate 0.062 kg/ha,0.0
same,AMBEL herbicidal rating,[24]; rate 0.125 kg/ha,1.0
